Like-named read-outs stand apart in the source and are kept apart here.
Tests used:
[1] = tested on: L1210 murine leukemia cell line; experiment: In vitro antineoplastic test, L1210 leukemia (MTT, 3 days); format: cell-based; conditions: Mus musculus, read-out: L1210 Leukemia In Vitro Mean IC50
Description: (§1) Compounds of the present invention are tested for antineoplastic activity by the following in vitro L1210 and in vivo P388 leukemia protocols:
In Vitro Antineoplastic Test Protocol
The activities of compounds of the present invention are tested against the L1210 murine leukemia cell line in vitro.
[…] cells are grown in RPMI 1640 culture medium containing 10% fetal bovine serum and gentamicin (50 micrograms per milliliter). A stock solution of the test compound is prepared in the appropriate solvent and further diluted in culture medium. Sequential twofold dilutions of drug are performed with 50 microliter transfers in 96-well microliter plates followed by the addition of 50 microliters of cell suspension containing 4×10^4 cells per milliliter.
After incubation at 37° C. in a humidified atmosphere of 5% CO2 in air for three days, 10 microliters of MTT [5 milligrams/milliliter 3-(4,5-dimethyl-2-thiazol)-2,5-diphenyltetrazolium bromide]are added to each well and the plates incubated at 37° C. for 3 hours before the addition of 100 microliters of 0.15 N HCl in isopropanol. Absorbance is read within one hour on a Dynatech MR 600 plate reader at 2 test wavelength of 570 nm and a reference wavelength of 630 nm. A microcomputer program converts optical density readings to percent growth and determines IC50 values (the amount of drug required to reduce absorbance to 50% of untreated controls) using nonlinear regression analysis.

[2] = tested on: P388 murine leukemia cell line; experiment: In vivo antineoplastic test, P388 leukemia in mice; parameters: species or system murine (male and female CD2Fl mice)
Description: as §1
In Vivo Antineoplastic Test Protocol
The activities of compounds of the present invention are tested against the P388 murine leukemia cell line in vivo. This protocol tests the effectiveness of a given compounds to inhibit the growth of the transplanted P388 murine leukemia cell line in male and female CD2Fl mice. Each test included a group of six or seven mice. The test is described in detail in Cancer Chemotherapy Reports, Part 3, Volume 3, pp 1-85 (1972).
The tumor cell line is transplanted into the test animals by intraperitoneal injection of ascites fluid containing the cell line. […]
A compound is designated "toxic" if, at a given dose, no animal survives after four days following first injection of the test compound. A ratio of survival time for treated animals (T) animals relative to control (C) animals is calculated for each nontoxic dose. A criterion for efficacy is a ratio of (T/C)×100 equal to or greater than 125.

[3] = tested on: tumors, including small-cell carcinoma of the lung, acute leukemia, malignant lymphoma, and testicular cancer; conditions: background art; cited from earlier work
[4] = background art; cited from earlier work
[5] = Mus musculus, P388, ip, 120 h, read-out: P388 Leukemia % T/C (survival time treated/control x 100)

Structure (SMILES): CCN(CC)CCOCCO[C@@H]1c2cc3c(cc2[C@@H](c2cc(OC)c(O)c(OC)c2)[C@H]2C(=O)OC[C@@H]21)OCO3 [Example 7, [5R-(5α,5aβ,8aα,9β)]-9-[2-[2-(diethyl-amino)ethoxy]ethoxy]-5,8,8a,9-tetrahydro-5-(4-hydroxy-3,5-dimethoxyphenyl)furo[3',4':6,7]naphtho[2,3-d]-1,3-dioxol-6(5aH)-one]
- IC50 ([1]; L1210, 72 h): 253 nM
- response vs control in vivo at 50 mg/kg [2, 5]: 170%

Structure (SMILES): COc1cc([C@@H]2c3cc4c(cc3[C@@H](S[C@@H]3O[C@@H]5COC(C)O[C@H]5[C@H](O)[C@H]3O)[C@H]3COC(=O)[C@H]23)OCO4)cc(OC)c1O (stereo partly drawn) [Example 11, (5α,5aα,8aα,9β)-9-[(4,6-O-ethylidene-β-D-glucopyranosyl)thio]-5,8,8a,9-tetrahydro-5-(4-hydroxy-3,5-dimethoxyphenyl)furo[3',4':6,7]naphtho[2,3-d]-1,3-dioxol-6(5aH)-one]
- IC50 ([1]; L1210, 72 h): 305 nM
- response vs control in vivo at 50 mg/kg [2, 5]: 182%
- 40-day survivors ([2]; P388, 50 mg/kg/inj, intraperitoneal once daily for five days): 3/6
- antitumor activity (in words) ([2]; conclusion from the table (L1210 and P388)): highly active

Structure (SMILES): COc1cc([C@@H]2c3cc4c(cc3[C@H](O)[C@H]3COC(=O)[C@H]23)OCO4)cc(OC)c1OC [podophyllotoxin]
- antineoplastic activity (in words) [3]: well documented
- toxicity (in words) [4]: extremely toxic

Structure (SMILES): COc1cc([C@@H]2c3cc4c(cc3[C@@H](OCCN3CCOCC3)[C@H]3COC(=O)[C@H]23)OCO4)cc(OC)c1O [Example 3, [5R-(5α,5aβ,8aα,9β)]-5,8,8a,9-tetrahydro-5-(4-hydroxy-3,5-dimethoxyphenyl)-9-[2-(4morpholinyl)ethoxy]furo[3',4':6,7]naphtho[2,3-d]-1,3-dioxol-6(5aH)-one]
- IC50 ([1]; L1210, 72 h): 235 nM
- response vs control in vivo at 3.1 mg/kg [2, 5]: 179%

Structure (SMILES): COc1cc([C@@H]2c3cc4c(cc3[C@@H](OCCN3CCCC3=O)[C@H]3COC(=O)[C@H]23)OCO4)cc(OC)c1O [Example 8, [5S-(5α,5aβ,8aα,9β)]-1-[2-[[5,5a,6,8,8a,9-hexahydro-9-(4-hydroxy-3,5-dimethoxyphenyl)-8-oxofuro-[3',4':6,7]naphtho[2,3-d]-1,3-dioxol-5-yl]oxy]ethyl]-2-pyrrolidinone]
- IC50 ([1]; L1210, 72 h): 500 nM
- response vs control in vivo at 100 mg/kg [2, 5]: 167%

Structure (SMILES): COc1cc([C@@H]2c3cc4c(cc3[C@@H](OCCN(C)CCO)[C@H]3COC(=O)[C@H]23)OCO4)cc(OC)c1O [Example 2]
- IC50 ([1]; L1210, 72 h): 103 nM
- response vs control in vivo at 0.38 mg/kg [2, 5]: 170%

Structure (SMILES): COc1cc([C@@H]2c3cc4c(cc3[C@@H](SCCN3CCOCC3)[C@H]3COC(=O)[C@H]23)OCO4)cc(OC)c1O [Example 9, [5R-(5α,5aβ,8aα,9β)]-5,8,8a,9-tetrahydro-5-(4-hydroxy-3,5-methoxyphenyl)-9-[[2-(4-morpholinyl)ethyl]thio]furo[3',4':6,7]naphtho[2,3-d]1,3-dioxol-6(5aH)-one]
- IC50 ([1]; L1210, 72 h): 1390 nM
- response vs control in vivo at 50 mg/kg [2, 5]: 127%

Structure (SMILES): CCN(CC)CCO[C@@H]1c2cc3c(cc2[C@@H](c2cc(OC)c(O)c(OC)c2)[C@H]2C(=O)OC[C@@H]21)OCO3 [Example 5, [5R-(5α,5aβ,8aα,9β)]-9-[2-(diethylamino)ethoxy]-5,8,8a,9-tetrahydro-5-(4-hydroxy-3,5-dimethoxyphenyl)furo[3',4':6,7]naphtho[2,3-d]-1,3-dioxol-6(5aH)-one]
- IC50 ([1]; L1210, 72 h): 198 nM
- response vs control in vivo at 3.1 mg/kg [2, 5]: 140%

Structure (SMILES): COc1cc([C@@H]2c3cc4c(cc3[C@@H](O[C@@H]3O[C@@H]5CO[C@@H](C)O[C@H]5[C@H](O)[C@H]3O)[C@H]3COC(=O)[C@H]23)OCO4)cc(OC)c1O [Etoposide, etoposide, reference compound]
- antineoplastic activity (in words) [3]: exhibited antineoplastic activity against certain tumors, including small-cell carcinoma of the lung, acute leukemia, malignant lymphoma, and testicular cancer
- toxicity (in words) [4]: reduced toxicity
- response vs control in vivo at 40 mg/kg ([2]; Mus musculus, P388, read-out: P388 Leukemia % T/C (survival time treated/control x 100)): 295%
- 60-days survivors ([2]; P388, 40 mg/kg/inj, once daily on Days 1, 5, and 9): 4/10

Structure (SMILES): COc1cc([C@@H]2c3cc4c(cc3[C@@H](SCC(O)CO)[C@H]3COC(=O)[C@H]23)OCO4)cc(OC)c1O (stereo partly drawn) [Example 10]
- IC50 ([1]; 72 h, L1210 cells, 3 days at 37° C., MTT): 767 nM
- response vs control in vivo at 12.5 mg/kg [2, 5]: 114%

Structure (SMILES): COc1cc([C@@H]2c3cc4c(cc3[C@@H](O[C@@H]3O[C@@H]5CO[C@@H](c6cccs6)O[C@H]5[C@H](O)[C@H]3O)[C@H]3COC(=O)[C@H]23)OCO4)cc(OC)c1O [teniposide]
- antineoplastic activity (in words) [3]: exhibited antineoplastic activity against certain tumors, including small-cell carcinoma of the lung, acute leukemia, malignant lymphoma, and testicular cancer
- toxicity (in words) [4]: reduced toxicity

Structure (SMILES): COc1cc([C@@H]2c3cc4c(cc3[C@@H](OCCN(CCO)CCO)[C@H]3COC(=O)[C@H]23)OCO4)cc(OC)c1O [Example 4]
- IC50 ([1]; L1210, 72 h): 336 nM
- response vs control in vivo at 1.5 mg/kg [2, 5]: 160%

Structure (SMILES): CCN(CC)CCCO[C@@H]1c2cc3c(cc2[C@@H](c2cc(OC)c(O)c(OC)c2)[C@H]2C(=O)OC[C@@H]21)OCO3 [Example 6, [5R-(5α,5aβ,8aα,9β)]-9-3-[(diethylamino)propoxy]-5,8,8a,9-tetrahydro-5-(4-hydroxy-3,5-dimethoxyphenyl)furo[3',4':6,7]naphtho[2,3-d]-1,3-dioxol-6(5aH)-one]
- IC50 ([1]; L1210, 72 h): 250 nM
- response vs control in vivo at 2 mg/kg [2, 5]: 137%

From patent publication US5061791A, “4-bromo-4'-demethylepipodophyllotoxin derivatives” (Warner-Lambert Company, priority 1989, dated 1991)
